Where two headings read alike, the source gives them in different places.
How the values were obtained:
[1] = cited from earlier work
[2] = Time-resolved phosphorimetry (singlet oxygen generation quantum yield); assay type: physicochemical; settings: 250 μM in DMSO and methanol (1:9); 532 nm excitation
Method: A sample of Rose Bengal and the Si-Me of Comparative Example 1 was prepared in a DMSO and methanol (1:9) solution placed in a 1×1×4 cm^3 quartz cell (the concentration of Rose Bengal=21.5 μM, and the concentration of Si-Me=250 μM).
Second harmonic oscillation (532 nm, 4 nsfwhm, 5.0 mJ·cm^−2 pulse^−1) generated by a Q-switched Nd YAG laser (Surelite II-10, Continuum) was used as an excitation light. The light-induced luminescence of the sample cell was condensed on a quartz lens via a monochromator, and subsequently introduced into a near-infrared photomultiplier tube module (H10330A-75; Hamamatsu Photonics K.K.).
After the amplification using a 350-MHz amplifier unit (SR445A; Stanford Research Systems), the output of the photomultiplier tube was sent to a gated photon counter (SR400; Stanford Research Systems) under direct PC control via a GPIB interface. In order to measure the lifetime of ^1O2, measurement was performed by changing the delay time between 0 to 50 μseconds at a gate width of 1.0 μsecond, and accumulating the results (repeated 5 times).

HeLa cells = experiment: Selectivity of photosensitizer: intracellular singlet oxygen detection with Si-DMA; assay type: cell-based; settings: HeLa cells, Si-DMA probe; 60-second light irradiation; photosensitizer as labelled
Method: Subsequently, a quick protocol provided by Molecular Probe® for introducing CellROX Green was followed. Using diluted Si-DMA and Si-Me, incubation was performed for 30 minutes to two hours by an experiment. To introduce a photosensitizer, 150 μg/mL of 5-aminolevulinic acid (5-ALA) or 10 LM TMPyP4 were incubated for four hours and 24 hours, respectively. As a result, as previously reported, the conversion of 5-ALA into protoporphyrin IX (PpIX) in the mitochondria was confirmed by the fluorescence luminescence of PpIX.
A KillerRed vector was expressed in accordance with a general Lipofectamine® 2000 (Invitrogen) protocol. More specifically, 2×10^5 Hela cells were subcultured in a 35-mm glass bottom dish. The cells reached about 50% confluent in the next day.
Subsequently, a mixed solution of Lipofectamine reagent and DNA vector was obtained by mixing 6 μL Lipofectamine® 2000 with 7 μL pKillerRed-dMitovector ([…], Evrogen, catalog No. FP964) in an Opti-MEM solution (Gibco). Thereafter, the resulting solution was incubated for 20 minutes at room temperature. 300 μL of the mixed solution was added to a growth medium, and incubated for 24 hours. The expression of KillerRed was confirmed by monitoring KillerRed fluorescence using a wide-view microscope. […]
Further, on the night before the treatment, 0.2×10^6 HeLa cells were seeded on a 35-mm dish, and pKillerRed-dMito vector (Evrogen) was introduced using Lipofectaimine®2000 (Invitrogen®), followed by 24-hour incubation as described above, thereby preparing HeLa cells containing […]. […] Light irradiation was performed for 30 seconds simultaneously at 0.5 W/cm^2 and 0.6 W/cm^2 using a 640-/532-nm laser (Coherent) and a wide-view fluorescence microscope system mounted in an IX81 inverted microscope (Olympus Corporation). […]
Further, in this Experiment Example, 60-second light irradiation was performed using three kinds of photosensitizers, and an average number of pseudo colors appeared in the photo and an increase thereof were measured. […]

Compound: O=C1OC2(c3cc(Cl)c(O)cc3Oc3cc(O)c(Cl)cc32)c2ccccc21 [2,7-dichlorofluorescein]
- ΦΔ (singlet oxygen generation quantum yield) ([1]; comparison value for SOSG chromophore): 0.06

Compound: O=C([O-])c1c(Cl)c(Cl)c(Cl)c(Cl)c1-c1c2cc(I)c(=O)c(I)c-2oc2c(I)c([O-])c(I)cc12.[Na+].[Na+] [Rose Bengal]
- ΦΔ (singlet oxygen generation quantum yield) ([1]; in methanol, reference value): 0.76

Compound: Cc1ccccc1C1=C2C=CC(=[N+](C)C)C=C2[Si](C)(C)c2cc(N(C)C)ccc21 [Si-Me]
- ΦΔ (singlet oxygen generation quantum yield) [2]: about 0.02

Compound: C[n+]1ccc(-c2c3nc(c(-c4cc[n+](C)cc4)c4ccc([nH]4)c(-c4cc[n+](C)cc4)c4nc(c(-c5cc[n+](C)cc5)c5ccc2[nH]5)C=C4)C=C3)cc1 [TMPyP4, tetra-(N-methyl-4-pyridyl)porphyrin, reference compound]
- average number of pseudo colors during light irradiation (Si-DMA fluorescence) (HeLa cells): decreased
